In patent US20250296929A1, “NOVEL HEPATOSELECTIVE POLYADENYLATING POLYMERASES INHIBITORS AND THEIR METHOD OF USE” (BARUCH S. BLUMBERG INSTITUTE, priority 2021, published 2025):

Experiments:
[1] = Cellular toxicity (CellTiter-Glo) in HepG2.2.15 cells; assay type: cell-based; conditions: human
Protocol: (§1) Cellular assays method 1: Cellular assays: The HBV producing cell line HepG2.2.15 was cultured in DMEM/F12 containing 10% fetal bovine serum (FBS), 100 U/ml penicillin and 100 μg/ml streptomycin (Invitrogen). Compounds of the disclosure in DMSO was added into the culture medium when cell reached 100% confluence. The final concentration of DMSO was adjusted to 0.5%. Culture medium was replaced in two days and the cell was cultured for additional two days in the presence of compound. HBsAg inhibition in culture medium was then detected with AlphaLisa assay using anti-HBsAg antibodies of 10-H05H and 60C-CR2100RB from Fitzgerald Internantional. To examine the change of nucleic acid, total RNA was extracted with Trizol reagents and resolved in glyoxal agarose gel. HBV RNA blotted onto nitrocellulose membrane was measured with P32 labeled ribo-probe. Reduction and shortening of viral RNA indicates on target effect of the tested compound. […] HepG2.2.15 cells were first seeded in 96-well plate (Corning, Cat #: CLS3595) at density of 10,000 cells/well in 100 ul DMEM/F12 medium containing 10% FBS. When cells reached 100% confluence, treatment with compounds of the disclosure was initiated, and cells were cultured in the way as described for HBsAg inhibition study. Four days post drug treatment, 100 ul of CellTiter-Glo reagents (Promega, Cat #G7570) were added into each well and the mixture was incubated at 23° C. for 12 minutes, followed by the reading of luminescent signal in Tecan's Infinite 200 PRO. Compound IC50 on HBsAg and CC50 on cell viability were calculated using Graphpad prism. The IC50 and CC50 are defined as the compound concentration (or conditioned media log dilution) at which HBsAg secretion and cytotoxicity, respectively, are reduced by 50% compared to the no drug control.
(§2) Cellular assays method 2: HepG2.2.15 cells were seeded in duplicate into white, 96-well plates at 1.5×10^4 cells/well. The cells were treated with a 3-fold serial dilution series of the compounds in DMSO. The final DMSO concentration in all wells was 1%, and DMSO was used as no drug control. The HBsAg chemiluminescence immunoassay (CLIA) kit (Autobio Diagnostics Co., Zhengzhou, China) was used to measure the levels of secreted HBV antigens semi-quantitatively. For the detection, 50 μL/well culture supernatant was used and the procedure conducted as directed by manufacturer's instructions. The cytotoxicity was measured using CellTiter-Glo (Promega, Madison, WI, USA, catalogue no. G7571). Dose-response curves were generated and the IC50 and CC50 values were calculated using Graphpad prism. The IC50 and CC50 are defined as the compound concentration (or conditioned media log dilution) at which HBsAg secrection and cytotoxicity, respectively, are reduced by 50% compared to the no drug control.

[2] = test system: HBsAg secretion, HBV producing cell line HepG2.2.15; assay: Cellular assay: HBsAg inhibition in HBV producing cell line HepG2.2.15; assay type: cell-based; conditions: Hepatitis B virus
Protocol: as §1, §2

OATP1B3 = target: T1, OATP1B3 (Homo sapiens, UniProt Q9NPD5); assay: OATP1B3 transporter substrate uptake in OATP1B3-HEK293 cells; assay type: in vitro ADME; conditions: for Uptake Ratio (−/+Inhibitor): OATP1B3-HEK293 cells, inhibitor Rifamycin SV; for Uptake Ratio (Transporter(−Inhibitor)/Mock(−Inhibitor)): OATP1B3-HEK293 vs Mock
T1 construct: expressed in transfected cells; host or cells: HEK293
T1 sequence (Q9NPD5 1-702): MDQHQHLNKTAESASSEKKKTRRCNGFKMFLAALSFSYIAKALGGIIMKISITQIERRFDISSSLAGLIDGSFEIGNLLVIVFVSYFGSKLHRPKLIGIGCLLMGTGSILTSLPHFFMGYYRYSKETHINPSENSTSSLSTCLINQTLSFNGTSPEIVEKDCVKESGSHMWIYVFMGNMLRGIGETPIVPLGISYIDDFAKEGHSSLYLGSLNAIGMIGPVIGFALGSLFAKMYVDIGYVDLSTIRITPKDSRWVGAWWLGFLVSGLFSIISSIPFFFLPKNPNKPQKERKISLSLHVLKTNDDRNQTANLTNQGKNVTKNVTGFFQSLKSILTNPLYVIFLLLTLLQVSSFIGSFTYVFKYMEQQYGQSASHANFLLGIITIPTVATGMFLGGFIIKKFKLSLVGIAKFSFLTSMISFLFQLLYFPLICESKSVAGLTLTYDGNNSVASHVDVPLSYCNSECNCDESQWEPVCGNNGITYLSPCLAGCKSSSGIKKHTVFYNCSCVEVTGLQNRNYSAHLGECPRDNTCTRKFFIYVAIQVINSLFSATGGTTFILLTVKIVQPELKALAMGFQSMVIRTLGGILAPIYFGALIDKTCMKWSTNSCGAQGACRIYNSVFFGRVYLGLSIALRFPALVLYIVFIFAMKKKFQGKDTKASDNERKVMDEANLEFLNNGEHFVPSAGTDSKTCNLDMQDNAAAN
Protocol: Protocol for identification of compounds that are substrates of transporters OATP1B1 and OATP1B3. Transfected HTEK293 and vector control HTEK293 cells were cultured in 24-well poly-D-lysine or collagen-coated tissue culture plates ([…]) for 2 and 10 minutes respectively in transport buffer (HIBSSg, pH 7.4, pre-warmed to 37° C.). At a defined time point, the uptake experiments were stopped by removing dosing solution followed by two washes of ice-cold HIBSSg buffer. The cells were lysed for 2 minutes with […] containing an appropriate internal standard (when available). Lysis buffer were chilled to −20° C., and the plate was kept on ice during lysis. The cell lysate was transferred into a 96-well plate for sample analysis with LC-MS/MS analysis to determine concentration of test compound in cell lysate. The uptake of test compounds was normalized by total cell protein using the BCA Protein Assay Kit following the manufacturer's protocol. The inhibitor Rifamycin SV was used to block OATP1B1 and OATP1B3 transporter activity in order to determine uptake ratios.

OATP1B1 = target: T2, OATP1B1 (Homo sapiens, UniProt Q9Y6L6); assay: OATP1B1 transporter substrate uptake in OATP1B1-HEK293 cells; assay type: in vitro ADME; conditions: for Uptake Ratio (−/+Inhibitor): OATP1B1-HEK293 cells, inhibitor Rifamycin SV; for Uptake Ratio (Transporter(−Inhibitor)/Mock(−Inhibitor)): OATP1B1-HEK293 vs Mock (normal HEK293)
T2 construct: expressed in transfected cells; host or cells: HEK293
T2 sequence (Q9Y6L6 1-691): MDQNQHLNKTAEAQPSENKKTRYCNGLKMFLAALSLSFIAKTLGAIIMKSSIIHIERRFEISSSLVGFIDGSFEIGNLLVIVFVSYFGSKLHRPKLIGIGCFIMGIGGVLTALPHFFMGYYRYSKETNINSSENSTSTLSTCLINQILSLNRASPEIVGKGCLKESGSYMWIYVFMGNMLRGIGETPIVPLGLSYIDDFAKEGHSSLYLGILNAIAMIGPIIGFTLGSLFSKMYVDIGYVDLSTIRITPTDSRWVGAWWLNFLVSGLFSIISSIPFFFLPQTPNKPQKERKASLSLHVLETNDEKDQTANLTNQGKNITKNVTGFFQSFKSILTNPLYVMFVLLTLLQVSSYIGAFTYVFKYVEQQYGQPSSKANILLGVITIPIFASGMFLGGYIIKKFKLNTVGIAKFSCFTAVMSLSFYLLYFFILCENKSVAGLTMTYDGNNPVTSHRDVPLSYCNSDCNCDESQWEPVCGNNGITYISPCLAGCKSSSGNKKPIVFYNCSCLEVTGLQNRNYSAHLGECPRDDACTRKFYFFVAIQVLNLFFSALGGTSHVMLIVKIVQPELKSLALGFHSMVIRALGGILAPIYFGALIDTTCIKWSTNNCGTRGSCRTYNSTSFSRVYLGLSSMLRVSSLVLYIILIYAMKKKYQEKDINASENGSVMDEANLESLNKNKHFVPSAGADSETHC

[3] = test system: woodchuck hepatitis virus (WHV); conditions: oral administration, woodchucks chronically infected with WHV; cited from earlier work
[4] = in words; cited from earlier work
HBV = conditions: oral treatment, HBV infected uPA-SCID mice harboring human hepatocytes; cited from earlier work

Row | SMILES | CC50 [1] [nM] | EC50 [2] [nM] | further results
1 | COc1cc2c(cc1OCCCCCCCC(=O)O)C[C@@H](C(C)C)n1cc(C(=O)O)c(=O)cc1-2 [Example 7, (S)-9-((7-carboxyheptyl)oxy)-6-isopropyl-10-methoxy-2-oxo-6,7-dihydro-2H-pyrido[2,1-a]isoquinoline-3-carboxylic acid] | > 10000 | 7.6 | –
2 | COc1cc2c(cc1OCCCCC(=O)O)C[C@@H](C(C)C)n1cc(C(=O)O)c(=O)cc1-2 [Example 3, (S)-9-(4-carboxybutoxy)-6-isopropyl-10-methoxy-2-oxo-6,7-dihydro-2H-pyrido[2,1-a]isoquinoline-3-carboxylic acid] | > 10000 | 380 | –
3 | C[C@]12CC[C@@H]3c4ccc(O)cc4CC[C@H]3[C@@H]1CC[C@@H]2O[C@@H]1O[C@H](C(=O)O)[C@@H](O)[C@H](O)[C@H]1O [Estradiol 17-β Glucuronide] | – | – | Uptake Ratio (−/+Inhibitor) (OATP1B3; test concentration 10 μM): 86.15; Uptake Ratio (Transporter(−Inhibitor)/Mock(−Inhibitor)) (OATP1B3; test concentration 10 μM): 98.86; Uptake Ratio (−/+Inhibitor) (OATP1B1; test concentration 10 μM): 81.84; Uptake Ratio (Transporter(−Inhibitor)/Mock(−Inhibitor)) (OATP1B1; test concentration 10 μM): 48.70
4 | COc1cc2c(cc1OCCCC(=O)O)C[C@@H](C(C)C)n1cc(C(=O)O)c(=O)cc1-2 [Example 2, (S)-9-(3-carboxypropoxy)-6-isopropyl-10-methoxy-2-oxo-6,7-dihydro-2H-pyrido [2,1-a]isoquinoline-3-carboxylic acid] | > 10000 | 1010 | –
5 | COc1cc2c(cc1OCCCCCCCCC(=O)O)C[C@@H](C(C)C)n1cc(C(=O)O)c(=O)cc1-2 [Example 8, (S)-9-((8-carboxyoctyl)oxy)-6-isopropyl-10-methoxy-2-oxo-6,7-dihydro-2H-pyrido[2,1-a]isoquinoline-3-carboxylic acid] | > 10000 | 4.6 | –
6 | COc1cc2c(cc1OCCCCCC(=O)O)C[C@@H](C(C)C)n1cc(C(=O)O)c(=O)cc1-2 [Example 4, (S)-9-((5-carboxypentyl)oxy)-6-isopropyl-10-methoxy-2-oxo-6,7-dihydro-2H-pyrido[2,1-a]isoquinoline-3-carboxylic acid] | > 10000 | 87 | –
7 | COc1cc2c(cc1OCCCOCC(=O)O)C[C@@H](C(C)C)n1cc(C(=O)O)c(=O)cc1-2 [Example 5, (S)-9-(3-(carboxymethoxy)propoxy)-6-isopropyl-10-methoxy-2-oxo-6,7-dihydro-2H-pyrido[2,1-a]isoquinoline-3-carboxylic acid] | > 10000 | 2780 | –
8 | COc1cc2c(cc1OCC(=O)O)C[C@@H](C(C)C)n1cc(C(=O)O)c(=O)cc1-2 [Example 1, (S)-9-(carboxymethoxy)-6-isopropyl-10-methoxy-2-oxo-6,7-dihydro-2H-pyrido [2,1-a]isoquinoline-3-carboxylic acid] | > 10000 | 10000 | –
9 | COCCCOc1cc2c(cc1OC)-c1cc(=O)c(C(=O)O)cn1[C@H](C(C)C)C2 [DHQ-1] | – | – | Reduction of WHV and surface protein in the blood [3]: multi-log reductions; Toxicity observed [4]: acute neurotoxicity liabilities; Uptake Ratio (−/+Inhibitor) (OATP1B3; test concentration 1 μM): 0.42; Uptake Ratio (Transporter(−Inhibitor)/Mock(−Inhibitor)) (OATP1B3; test concentration 1 μM): 0.56; Reduction of HBsAg in the circulation (HBV): 1 log; Uptake Ratio (−/+Inhibitor) (OATP1B1; test concentration 1 μM): 0.38; Uptake Ratio (Transporter(−Inhibitor)/Mock(−Inhibitor)) (OATP1B1; test concentration 1 μM): 0.71
